Values after ≈ are worked out from the molar mass of the structure shown.
How the values were obtained:
Format in all cases: cell-based
[1] = tested on: Plasmodium falciparum clone CDC/Sierra Leone I (D-6); assay: In vitro antimalarial [3H]-hypoxanthine incorporation serial dilution assay, D6; details: Plasmodium falciparum; P. falciparum D6, parasites exposed for 72 hours
Excerpt: (§1) The in vitro screens for intrinsic antimalarial activity were based on modifications of the procedures described by Desjardins R E, Canfield C J, Haynes J D, Chulay J D. (Quantitative assessment of antimalarial activity in vitro by a semiautomated microdilution technique. Antimicrob Agents Chemother. 1979 December; 16(6):710-8), Chulay J D, Haynes J D, Diggs C L. (Plasmodium falciparum: Assessment of in vitro growth by [3H]hypoxanthine incorporation. Exp. Parasitol. 1983 55:138-146), and Milhous W K, Weatherly N F, Bowdre J H, Desjardins R E. (In vitro activities of and mechanisms of resistance to antifol antimalarial drugs. Antimicrob Agents Chemother. 1985 April; 27(4):525-30). The system was limited to the assessment of the intrinsic activity against the erythrocytic asexual life cycle (blood schizontocides). Two Plasmodium falciparum clones from CDC/Indochina III (W-2) and CDC/Sierra Leone I (D-6) (Oduola A M, Weatherly N F, Bowdre J H, Desjardins R E. Plasmodium falciparum: cloning by single-erythrocyte micromanipulation and heterogeneity in vitro. Exp Parasitol. 1988 66(1):86-95) were used for all assays. TM91C235, a multiple drug resistant isolate from Thailand, was used for the prescreening assay. W-2 is resistant to chloroquine, quinine, and pyrimethamine and susceptible to mefloquine. D-6 tends to be more resistant to mefloquine and susceptible to chloroquine, quinine, and pyrimethamine. All documents cited in this paragraph are incorporated by reference in their entirety.
(§2) All parasites were maintained in continuous long term cultures in RPMI-1640 medium supplemented with 6% washed human A positive (A+) (erythrocytes, 25 mM Hepes, […], and 10% heat inactivated A+ human plasma or ALBUMAX® (lipid-rich bovine serum albumin; Invitrogen, Carlsbad, Calif.). All cultures and assays were conducted at 37° C. under an atmosphere of 5% CO2 and 5% O2, with a balance of N2.
(§3) The prescreening assay uses TM91C235 diluted at a 0.4% parasitemia in a 1% hematocrit in folic acid free and p-aminobenzoic acid free media RPMI-1640 and ALBUMAX®. One mg of the compound is typically dissolved in 100 μl of dimethyl sulfoxide (DMSO). The compound is further diluted in culture medium (FF) with ALBUMAX® for the first initial starting concentration. The rest of the stock drug solution was kept at −70° C. The isolate was preexposed, in duplicate, at three concentrations (25,000 ng/ml, 2,500 ng/ml, and 25 ng/ml) of the test compound for 48 hr in a 96-well microtiter plate (MTP) using the BIOMEK® 2000 automated laboratory workstation. Each MTP contains chloroquine as control to assess the relative activity of the compound and to monitor the response of TM91C235.
(§4) After the preincubation, [^3H]-hypoxanthine was added to each well of the MTP. (The assay relies on the incorporation of radiolabeled hypoxanthine by the parasites, which indicates reproduction, and inhibition of isotope incorporation was attributed to activity of known or candidate antimalarial drugs). After 72 hr of total incubation time, the MTP were frozen to lyse the erythrocytes and parasites. The parasite DNA was recovered by harvesting the lysate onto glass-fiber filter plates using a Packard FilterMate™ Cell Harvester. The radioactivity was counted on a Packard TopCount™ microplate scintillation counter. The results were recorded as counts per minutes (CPM) per well at each drug concentration divided by the arithmetic mean of the CPM from the three untreated infection parasite control wells.
(§5) The serial dilution assay was conducted using the same assay conditions and stock solution of the compound used for the preliminary screen, described above. Both the D-6 and the W-2 clones were used. The compounds were diluted two-fold over 11 different concentration ranges with a starting concentration that was based on the preliminary screen. […]

[2] = tested on: Plasmodium falciparum TM91C235; assay: In vitro antimalarial [3H]-hypoxanthine incorporation serial dilution assay, TM91C235; details: Plasmodium falciparum; P. falciparum TM91C235, parasites exposed for 72 hours
[3] = tested on: Plasmodium falciparum clone CDC/Indochina III (W-2); assay: In vitro antimalarial [3H]-hypoxanthine incorporation serial dilution assay, W2; details: Plasmodium falciparum, W2, 72 h, P. falciparum W2, parasites exposed for 72 hours
Excerpt: as §1, §2, §3, §4, §5

| IC50 [1] | IC50 [2] | IC50 [3] | Compound |
| --- | --- | --- | --- |
| 0.145 µg/mL (≈ 0.151 µM) | 0.0832 µg/mL (≈ 0.0866 µM) | 0.141 µg/mL (≈ 0.146 µM) | CC[C@H]1OC(=O)[C@H](C)[C@@H](O[C@H]2C[C@@](C)(OC)[C@@H](O)[C@H](C)O2)[C@H](C)[C@@H](O[C@@H]2O[C@H](C)C[C@H](N(C)C)[C@H]2O)[C@](C)(O)C[C@@H](C)CN(CCCNC(=O)Nc2ccc3ccccc3c2)[C@H](C)[C@@H](O)[C@]1(C)O [Compound 1] |
| 0.311 µg/mL (≈ 0.318 µM) | 0.23 µg/mL (≈ 0.234 µM) | 0.36 µg/mL (≈ 0.368 µM) | CC[C@H]1OC(=O)[C@H](C)[C@@H](O[C@H]2C[C@@](C)(OC)[C@@H](O)[C@H](C)O2)[C@H](C)[C@@H](O[C@@H]2O[C@H](C)C[C@H](N(C)C)[C@H]2O)[C@](C)(O)C[C@@H](C)CN(CCCNC(=O)Nc2ccccc2C(F)(F)F)[C@H](C)[C@@H](O)[C@]1(C)O [Compound 2] |
| 0.176 µg/mL (≈ 0.181 µM) | 0.117 µg/mL (≈ 0.12 µM) | 0.112 µg/mL (≈ 0.116 µM) | CC[C@H]1OC(=O)[C@H](C)[C@@H](O[C@H]2C[C@@](C)(OC)[C@@H](O)[C@H](C)O2)[C@H](C)[C@@H](O[C@@H]2O[C@H](C)C[C@H](N(C)C)[C@H]2O)[C@](C)(O)C[C@@H](C)CN(CCCNC(=S)NCCCc2ccccc2)[C@H](C)[C@@H](O)[C@]1(C)O [Compound 3] |
| 0.228 µg/mL (≈ 0.223 µM) | 0.0541 µg/mL (≈ 0.0529 µM) | 0.0768 µg/mL (≈ 0.0751 µM) | CC[C@H]1OC(=O)[C@H](C)[C@@H](O[C@H]2C[C@@](C)(OC)[C@@H](O)[C@H](C)O2)[C@H](C)[C@@H](O[C@@H]2O[C@H](C)C[C@H](N(C)C)[C@H]2O)[C@](C)(O)C[C@@H](C)CN(CCCNC(=S)N(CCC#N)CCCc2ccccc2)[C@H](C)[C@@H](O)[C@]1(C)O [Compound 4] |
| 0.091 µg/mL (≈ 0.0902 µM) | 0.0732 µg/mL (≈ 0.0726 µM) | 0.169 µg/mL (≈ 0.167 µM) | CC[C@H]1OC(=O)[C@H](C)[C@@H](O[C@H]2C[C@@](C)(OC)[C@@H](O)[C@H](C)O2)[C@H](C)[C@@H](O[C@@H]2O[C@H](C)C[C@H](N(C)C)[C@H]2O)[C@](C)(O)C[C@@H](C)CN(CCCN(CCC#N)C(=S)NCCc2ccccc2)[C@H](C)[C@@H](O)[C@]1(C)O [Compound 5] |
| 0.292 µg/mL (≈ 0.295 µM) | 0.118 µg/mL (≈ 0.119 µM) | 0.246 µg/mL (≈ 0.249 µM) | CC[C@H]1OC(=O)[C@H](C)[C@@H](O[C@H]2C[C@@](C)(OC)[C@@H](O)[C@H](C)O2)[C@H](C)[C@@H](O[C@@H]2O[C@H](C)C[C@H](N(C)C)[C@H]2O)[C@](C)(O)C[C@@H](C)CN(CCCNC(=O)NC(C)c2cccc3ccccc23)[C@H](C)[C@@H](O)[C@]1(C)O (some centres unmarked) [Compound 6] |
| 0.156 µg/mL (≈ 0.154 µM) | 0.143 µg/mL (≈ 0.141 µM) | 0.298 µg/mL (≈ 0.294 µM) | CC[C@H]1OC(=O)[C@H](C)[C@@H](O[C@H]2C[C@@](C)(OC)[C@@H](O)[C@H](C)O2)[C@H](C)[C@@H](O[C@@H]2O[C@H](C)C[C@H](N(C)C)[C@H]2O)[C@](C)(O)C[C@@H](C)CN(CCCN(CCC#N)C(=O)Nc2ccc3ccccc3c2)[C@H](C)[C@@H](O)[C@]1(C)O [Compound 7] |
| 0.268 µg/mL (≈ 0.282 µM) | 0.143 µg/mL (≈ 0.151 µM) | 0.176 µg/mL (≈ 0.186 µM) | CC[C@H]1OC(=O)[C@H](C)[C@@H](O[C@H]2C[C@@](C)(O)[C@@H](O)[C@H](C)O2)[C@H](C)[C@@H](O[C@@H]2O[C@H](C)C[C@H](N(C)C)[C@H]2O)[C@](C)(O)C[C@@H](C)CN(CCCNC(=O)Nc2cccc3ccccc23)[C@H](C)[C@@H](O)[C@]1(C)O [Compound 8] |
| 0.144 µg/mL (≈ 0.147 µM) | 0.159 µg/mL (≈ 0.163 µM) | 0.17 µg/mL (≈ 0.174 µM) | CC[C@H]1OC(=O)[C@H](C)[C@@H](O[C@H]2C[C@@](C)(OC)[C@@H](O)[C@H](C)O2)[C@H](C)[C@@H](O[C@@H]2O[C@H](C)C[C@H](N(C)C)[C@H]2O)[C@](C)(O)C[C@@H](C)CN(CCCNC(=S)Nc2cccc3ccccc23)[C@H](C)[C@@H](O)[C@]1(C)O [Compound 9] |
| 0.254 µg/mL (≈ 0.244 µM) | 0.16 µg/mL (≈ 0.153 µM) | 0.308 µg/mL (≈ 0.296 µM) | CC[C@H]1OC(=O)[C@H](C)[C@@H](O[C@H]2C[C@@](C)(OC)[C@@H](O)[C@H](C)O2)[C@H](C)[C@@H](O[C@@H]2O[C@H](C)C[C@H](N(C)C)[C@H]2O)[C@](C)(O)C[C@@H](C)CN(CCCN(CCC#N)C(=O)NC(C)c2cccc3ccccc23)[C@H](C)[C@@H](O)[C@]1(C)O (some centres unmarked) [Compound 10] |
| 0.276 µg/mL (≈ 0.267 µM) | 0.161 µg/mL (≈ 0.156 µM) | 0.217 µg/mL (≈ 0.21 µM) | CC[C@H]1OC(=O)[C@H](C)[C@@H](O[C@H]2C[C@@](C)(OC)[C@@H](O)[C@H](C)O2)[C@H](C)[C@@H](O[C@@H]2O[C@H](C)C[C@H](N(C)C)[C@H]2O)[C@](C)(O)C[C@@H](C)CN(CCCN(CCC#N)C(=O)Nc2ccc(Cl)cc2Cl)[C@H](C)[C@@H](O)[C@]1(C)O [Compound 11] |
| 0.233 µg/mL (≈ 0.235 µM) | 0.163 µg/mL (≈ 0.164 µM) | 0.2 µg/mL (≈ 0.201 µM) | CC[C@H]1OC(=O)[C@H](C)[C@@H](O[C@H]2C[C@@](C)(OC)[C@@H](O)[C@H](C)O2)[C@H](C)[C@@H](O[C@@H]2O[C@H](C)C[C@H](N(C)C)[C@H]2O)[C@](C)(O)C[C@@H](C)CN(CCCN(CCC#N)C(=S)NCc2ccccc2)[C@H](C)[C@@H](O)[C@]1(C)O [Compound 12] |
| 0.291 µg/mL (≈ 0.309 µM) | 0.189 µg/mL (≈ 0.2 µM) | 0.18 µg/mL (≈ 0.191 µM) | CC[C@H]1OC(=O)[C@H](C)[C@@H](O[C@H]2C[C@@](C)(OC)[C@@H](O)[C@H](C)O2)[C@H](C)[C@@H](O[C@@H]2O[C@H](C)C[C@H](N(C)C)[C@H]2O)[C@](C)(O)C[C@@H](C)CN(CCCNC(=S)NCc2ccccc2)[C@H](C)[C@@H](O)[C@]1(C)O [Compound 13] |
| 0.232 µg/mL (≈ 0.242 µM) | 0.215 µg/mL (≈ 0.225 µM) | 0.18 µg/mL (≈ 0.188 µM) | CC[C@H]1OC(=O)[C@H](C)[C@@H](O[C@H]2C[C@@](C)(OC)[C@@H](O)[C@H](C)O2)[C@H](C)[C@@H](O[C@@H]2O[C@H](C)C[C@H](N(C)C)[C@H]2O)[C@](C)(O)C[C@@H](C)CN(CCCNC(=S)NCCc2ccccc2)[C@H](C)[C@@H](O)[C@]1(C)O [Compound 14] |
| 0.539 µg/mL (≈ 0.531 µM) | 0.263 µg/mL (≈ 0.259 µM) | 1.42 µg/mL (≈ 1.4 µM) | CC[C@H]1OC(=O)[C@H](C)[C@@H](O[C@H]2C[C@@](C)(OC)[C@@H](O)[C@H](C)O2)[C@H](C)[C@@H](O[C@@H]2O[C@H](C)C[C@H](N(C)C)[C@H]2O)[C@](C)(O)C[C@@H](C)CN(CCCN(CCC#N)C(=O)Nc2cccc3ccccc23)[C@H](C)[C@@H](O)[C@]1(C)O [Compound 15] |
| 0.192 µg/mL (≈ 0.226 µM) | 0.157 µg/mL (≈ 0.184 µM) |  | CC[C@H]1OC(=O)[C@H](C)[C@@H](O)[C@H](C)[C@@H](O[C@@H]2O[C@H](C)C[C@H](N(C)C)[C@H]2O)[C@](C)(O)C[C@@H](C)CN(CCCN(CCC#N)C(=S)NCCc2ccccc2)[C@H](C)[C@@H](O)[C@]1(C)O [Compound 31] |
| 0.155 µg/mL (≈ 0.18 µM) | 0.106 µg/mL (≈ 0.122 µM) |  | CC[C@H]1OC(=O)[C@H](C)[C@@H](O)[C@H](C)[C@@H](O[C@@H]2O[C@H](C)C[C@H](N(C)C)[C@H]2O)[C@](C)(O)C[C@@H](C)CN(CCCN(CCC#N)C(=S)NCCCc2ccccc2)[C@H](C)[C@@H](O)[C@]1(C)O [Compound 32] |
| 0.962 µg/mL (≈ 1.1 µM) | 0.277 µg/mL (≈ 0.316 µM) |  | CC[C@H]1OC(=O)[C@H](C)[C@@H](O)[C@H](C)[C@@H](O[C@@H]2O[C@H](C)C[C@H](N(C)C)[C@H]2O)[C@](C)(O)C[C@@H](C)CN(CCCN(CCC#N)C(=O)Nc2ccc(Cl)cc2Cl)[C@H](C)[C@@H](O)[C@]1(C)O [Compound 33] |
| 0.203 µg/mL (≈ 0.237 µM) | 0.191 µg/mL (≈ 0.223 µM) |  | CC[C@H]1OC(=O)[C@H](C)[C@@H](O)[C@H](C)[C@@H](O[C@@H]2O[C@H](C)C[C@H](N(C)C)[C@H]2O)[C@](C)(O)C[C@@H](C)CN(CCCN(CCC#N)C(=O)Nc2ccc3ccccc3c2)[C@H](C)[C@@H](O)[C@]1(C)O [Compound 34] |
